Experiments:
Test in all cases: relative viability (nuclei count vs DMSO), 5 days (fraction); higher = more cells survive
[1] = compound: C/C(=N\NC(=S)N1CCC1)/C2=CC=CC=N2 + CCNC(=O)c1noc(-c2cc(C(C)C)c(O)cc2O)c1-c1ccc(CN2CCOCC2)cc1 [Luminespib] (partner 0.01 µM)
How it was run: (§1)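 Lung cancer cell lines in 1536-well plates got either a single drug or a fixed anchor-drug dose together with five library-drug doses (not always all listed) in √10 steps, by pin tool, on the day after seeding. Nuclei were counted after 5 days, and relative viability is the treated-to-vehicle ratio of nuclei counts. Values are medians of duplicate plates.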

[2] = compound: C/C(=N\NC(=S)N1CCC1)/C2=CC=CC=N2 + Nc1ncn([C@H]2C[C@H](O)[C@@H](CO)O2)c(=O)n1 [Decitabine] (partner 2 µM)
How it was run: as §1

[3] = compound: C/C(=N\NC(=S)N1CCC1)/C2=CC=CC=N2 + O=C(c1cc(Cc2n[nH]c(=O)c3ccccc23)ccc1F)N1CCN(C(=O)C2CC2)CC1 [Olaparib] (partner 8 µM)
How it was run: as §1

[4] = compound: C/C(=N\NC(=S)N1CCC1)/C2=CC=CC=N2 + CS(=O)(=O)CCNCc1ccc(-c2ccc3ncnc(Nc4ccc(OCc5cccc(F)c5)c(Cl)c4)c3c2)o1 [Lapatinib] (partner 2 µM)
How it was run: as §1

| Cell Line | relative viability ([1]; first compound 0.05 µM) | relative viability ([1]; first compound 0.1581 µM) | relative viability ([1]; first compound 0.5 µM) | relative viability ([1]; first compound 1.581 µM) | relative viability ([1]; first compound 5 µM) | relative viability ([2]; first compound 0.05 µM) | relative viability ([2]; first compound 0.1581 µM) | relative viability ([2]; first compound 0.5 µM) | relative viability ([2]; first compound 1.581 µM) | relative viability ([2]; first compound 5 µM) | relative viability ([3]; first compound 0.05 µM) | relative viability ([3]; first compound 0.1581 µM) | relative viability ([3]; first compound 0.5 µM) | relative viability ([3]; first compound 1.581 µM) | relative viability ([3]; first compound 5 µM) | relative viability ([4]; first compound 0.05 µM) | relative viability ([4]; first compound 0.1581 µM) | relative viability ([4]; first compound 0.5 µM) | relative viability ([4]; first compound 1.581 µM) | relative viability ([4]; first compound 5 µM) |
| --- | --- | --- | --- | --- | --- | --- | --- | --- | --- | --- | --- | --- | --- | --- | --- | --- | --- | --- | --- | --- |
| NCI-H441 | 0.205 | 0.158 | 0.251 | 0.181 | 0.164 | 0.185 | 0.163 | 0.17 | 0.134 | 0.126 | 0.167 | 0.136 | 0.125 | 0.113 | 0.138 | – | – | – | – | – |
| NCI-H1793 | 0.214 | 0.142 | 0.103 | 0.119 | 0.141 | 0.276 | 0.193 | 0.218 | 0.138 | 0.166 | 0.255 | 0.143 | 0.169 | 0.123 | 0.107 | 0.192 | 0.169 | 0.165 | 0.146 | 0.197 |
| NCI-H23 | 0.151 | 0.149 | 0.204 | 0.206 | 0.204 | 0.178 | 0.2 | 0.161 | 0.172 | 0.202 | 0.129 | 0.101 | 0.0966 | 0.0889 | 0.111 | 0.169 | 0.168 | 0.171 | 0.151 | 0.166 |
| HARA | 0.124 | 0.121 | 0.0663 | 0.0648 | 0.0838 | 0.229 | 0.168 | 0.153 | 0.242 | 0.164 | 0.433 | 0.192 | 0.13 | 0.119 | 0.13 | 0.102 | 0.115 | 0.155 | 0.0859 | 0.0828 |
| NCI-H1792 | 0.23 | 0.187 | 0.176 | 0.169 | 0.157 | 0.333 | 0.172 | 0.102 | 0.0665 | 0.0895 | 0.228 | 0.107 | 0.0578 | 0.134 | 0.101 | 0.371 | 0.38 | 0.179 | 0.193 | 0.104 |
| NCI-H1703 | – | – | – | – | – | – | – | – | – | – | 0.0864 | 0.132 | 0.103 | 0.0868 | 0.158 | 0.185 | 0.153 | 0.17 | 0.168 | 0.178 |
| NCI-H2342 | 0.261 | 0.279 | 0.23 | 0.245 | 0.238 | 0.318 | 0.306 | 0.265 | 0.276 | 0.25 | 0.276 | 0.281 | 0.192 | 0.206 | 0.259 | – | – | – | – | – |
| CAL-12T | 0.138 | 0.147 | 0.0989 | 0.105 | 0.112 | – | – | – | – | – | 0.16 | 0.149 | 0.185 | 0.171 | 0.131 | 0.259 | 0.214 | 0.2 | 0.182 | 0.187 |
| NCI-H727 | 0.249 | 0.337 | 0.294 | 0.346 | 0.34 | 0.406 | 0.366 | 0.394 | 0.398 | 0.466 | 0.437 | 0.273 | 0.295 | 0.347 | 0.4 | 0.194 | 0.222 | 0.25 | 0.232 | 0.267 |
| NCI-H2085 | 0.236 | 0.274 | 0.281 | 0.234 | 0.211 | 0.255 | 0.324 | 0.358 | 0.309 | 0.376 | 0.307 | 0.25 | 0.293 | 0.281 | 0.278 | 0.341 | 0.365 | 0.335 | 0.271 | 0.325 |
| NCI-H1395 | 0.305 | 0.338 | 0.332 | 0.349 | 0.337 | 0.331 | 0.36 | 0.357 | 0.354 | 0.377 | 0.321 | 0.285 | 0.373 | 0.364 | 0.39 | 0.314 | 0.424 | 0.355 | 0.315 | 0.412 |
| NCI-H1648 | – | – | – | – | – | 0.274 | 0.248 | 0.3 | 0.338 | 0.353 | 0.624 | 0.794 | 0.294 | 0.278 | 0.226 | – | – | – | – | – |
| NCI-H460 | 0.0193 | 0.0163 | 0.025 | 0.0173 | 0.0171 | 0.0547 | 0.04 | 0.0328 | 0.0221 | 0.0138 | 0.0648 | 0.0442 | 0.0577 | 0.0429 | 0.0274 | 0.0117 | 0.0152 | 0.017 | 0.015 | 0.0086 |
| A549 | – | – | – | – | – | 0.0459 | 0.0345 | 0.0375 | 0.0441 | 0.0197 | 0.0312 | 0.0426 | 0.0325 | 0.0517 | 0.0367 | 0.065 | 0.0607 | 0.0715 | 0.0714 | 0.0609 |
| IA-LM | – | – | – | – | – | – | – | – | – | – | 0.115 | 0.107 | 0.101 | 0.0716 | 0.0719 | 0.0819 | 0.067 | 0.0525 | 0.0618 | 0.0601 |
| EKVX | 0.0986 | 0.123 | 0.114 | 0.119 | 0.143 | 0.15 | 0.138 | 0.13 | 0.138 | 0.16 | 0.149 | 0.115 | 0.121 | 0.16 | 0.167 | 0.108 | 0.137 | 0.119 | 0.153 | 0.131 |
